We go through 26 molecules from patent US20240025906A1 (NEURON23, INC., priority 2022, published 2024).

In assay [1] the test system is JAK1/TYK2 pSTAT5 (Tyr694/699) in THP-1 cell line. Description: IFNa-stimulated JAK1/TYK2 pSTAT5 (Tyr694/699) inhibition cellular assay, AlphaLISA. Type of assay: cell-based. Conditions: Homo sapiens; THP-1 cells, IFNa-stimulated pSTAT5 (Tyr694/699), AlphaLISA (Assay B); read-out: Cellular_THP1_IFNa-pSTATS_TYK2. Summed up:
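The readout is AlphaLISA signal at 615 nm for phospho-STAT5 in THP-1 lysates after IFNa stimulation (added at 100 ng/mL, 30 min, 37 °C). Cells had compound for 1 h beforehand across eight 6-fold concentrations up to 10000 nM final. IC50s are 4PL fits with bottom and Hill slope constrained.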

Assay [2] deals with T1, TYK2 JH2 (Homo sapiens, UniProt P29597).
T1 construct: purchased DiscoverX (KINOMEscan KdELECT service); host or cells: E. coli BL21-derived (T7 phage display) or HEK-293
T1 sequence (P29597 589-875 limits assumed): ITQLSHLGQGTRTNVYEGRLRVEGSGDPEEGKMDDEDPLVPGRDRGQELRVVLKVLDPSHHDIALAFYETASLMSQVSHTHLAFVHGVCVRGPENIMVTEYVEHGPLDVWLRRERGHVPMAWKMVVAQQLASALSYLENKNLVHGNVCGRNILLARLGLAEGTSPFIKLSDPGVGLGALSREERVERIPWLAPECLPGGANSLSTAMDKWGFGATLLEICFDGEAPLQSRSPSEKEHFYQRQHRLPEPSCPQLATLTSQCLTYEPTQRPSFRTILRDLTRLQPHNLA
Nature of the assay: TYK2 JH2 binding assay (KINOMEscan KdELECT competitive binding). The settings on record: TYK2 JH2 domain, KINOMEscan KdELECT (Assay A); read-out: Biochemical TYK2_DiscoverX_JH2_BND_Kd. The essentials:
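Competition binding, KdELECT format. Kinase (phage-tagged, E. coli BL21-derived host; or HEK-293, DNA-tagged) + ligand-coated streptavidin beads + cpd, 1 h RT, final DMSO 0.9%. Wash, elute 30 min with 0.5 μM non-biotinylated ligand; qPCR readout. Kd: 11-pt, 3-fold series.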

For assay [3], the system named is Psoriasis patients. Conditions: humans; TYK2 inhibitor; background statement citing Armstrong et al, Ann of Rheu Dis, 2020; cited from earlier work.

Consider `CNc1ncc(C#Cc2ccc(OC)cn2)c2cc(NC(=O)C3CCOCC3)ncc12` [Example 1081, N-[5-[2-(5-methoxy-2-pyridyl)ethynyl]-8-(methylamino)-2,7-naphthyridin-3-yl]tetrahydropyran-4-carboxamide], for which, in assay [1], the IC50 is no more than 0.5 µM. The Kd in assay [2] is no more than 0.1 µM.
Regarding `CNc1ncc(C#Cc2ccc(OC)cn2)c2cc(NC(=O)N3CCOCC3)ncc12` [Example 1082, N-[5-[2-(5-methoxy-2-pyridyl)ethynyl]-8-(methylamino)-2,7-naphthyridin-3-yl]morpholine-4-carboxamide], the IC50 in assay [1] is no more than 0.5 µM. Further, the Kd in assay [2] is no more than 0.1 µM.
Consider `CNc1ncc(C#Cc2ccc(OC)cn2)c2cc(NC(=O)N3CC(OC)C3)ncc12` [Example 1083, 3-methoxy-N-[5-[2-(5-methoxy-2-pyridyl)ethynyl]-8-(methylamino)-2,7-naphthyridin-3-yl]azetidine-1-carboxamide], for which the IC50 in assay [1] is greater than 0.5 µM. Further, in assay [2], the Kd is no more than 0.1 µM.
As for `CNc1ncc(C#Cc2ccc(OC)cn2)c2cc(NC(=O)C3COC3)ncc12` [Example 1084, N-[5-[2-(5-methoxy-2-pyridyl)ethynyl]-8-(methylamino)-2,7-naphthyridin-3-yl]oxetane-3-carboxamide], the IC50 in assay [1] is greater than 0.5 µM. The Kd in assay [2] was no more than 0.1 µM.
As for `CNc1ncc(-c2cn3cc(N4CCO[C@@H](C)C4)ccc3n2)c2cc(NC(=O)C3(F)CC3)ncc12` [Example 1085, 1-fluoro-N-[8-(methylamino)-5-[6-[(2S)-2-methylmorpholin-4-yl]imidazo[1,2-a]pyridin-2-yl]-2,7-naphthyridin-3-yl]cyclopropanecarboxamide], the IC50 in assay [1] is no more than 0.5 µM. Further, the Kd in assay [2] is no more than 0.1 µM.
`CNc1ncc(-c2nc3cc(N(C)C(C)=O)ccc3o2)c2cc(Nc3cccc(OC)n3)ncc12` [Example 1086, N-[2-[6-[(6-methoxy-2-pyridyl)amino]-1-(methylamino)-2,7-naphthyridin-4-yl]-1,3-benzoxazol-5-yl]-N-methyl-acetamide]: the IC50 in assay [1] was no more than 0.5 µM. Moreover, the Kd in assay [2] is no more than 0.1 µM.
On the same counts, the results for `CNc1ncc(C#Cc2ccc(OC)cn2)c2cc(Nc3cccn(-c4ccccn4)c3=O)ncc12` [Example 1087, 3-[[5-[2-(5-methoxy-2-pyridyl)ethynyl]-8-(methylamino)-2,7-naphthyridin-3-yl]amino]-1-(2-pyridyl)pyridin-2-one] are greater than 0.5 µM and no more than 0.1 µM.
Turning to `CNc1ncc(-c2nc3ccc(N4CCOCC4)cn3n2)c2cc(Nc3cc(C(C)(C)O)ccn3)ncc12` [Example 1088, 2-[2-[[8-(methylamino)-5-(6-morpholino-[1,2,4]triazolo[1,5-a]pyridin-2-yl)-2,7-naphthyridin-3-yl]amino]-4-pyridyl]propan-2-ol], in assay [1], the IC50 is no more than 0.5 µM. The Kd in assay [2] was no more than 0.1 µM.
On the same counts, the results for `CNc1ncc(-c2nc3ccc(N4CCOCC4)cn3n2)c2cc(Nc3nccc(C(C)(C)O)c3F)ncc12` [Example 1089, 2-[3-fluoro-2-[[8-(methylamino)-5-(6-morpholino-[1,2,4]triazolo[1,5-a]pyridin-2-yl)-2,7-naphthyridin-3-yl]amino]-4-pyridyl]propan-2-ol] are no more than 0.5 µM and no more than 0.1 µM.
With `CNc1ncc(-c2nc3ccc(N4CCOCC4)cn3n2)c2cc(Nc3ccc(C(F)(F)F)cn3)ncc12` [Example 1090, N1-methyl-4-(6-morpholino-[1,2,4]triazolo[1,5-a]pyridin-2-yl)-N6-[5-(trifluoromethyl)-2-pyridyl]-2,7-naphthyridine-1,6-diamine], the IC50 in assay [1] is greater than 0.5 µM. In addition, the Kd in assay [2] was no more than 0.1 µM.
As for `CNc1ncc(-c2nc3cc(NC(=O)C4CC4)ccc3o2)c2cc(NC(=O)C3CC3)ncc12` [Example 1091, N-(2-(6-(cyclopropanecarboxamido)-1-(methylamino)-2,7-naphthyridin-4-yl)benzo[d]oxazol-5-yl)cyclopropanecarboxamide], the IC50 in assay [1] is no more than 0.5 µM. For the same molecule, the Kd in assay [2] was no more than 0.1 µM.
For `CCC(=O)Nc1ccc2oc(-c3cnc(NC)c4cnc(NC(=O)C5CC5)cc34)nc2c1` [Example 1092, N-(8-(methylamino)-5-(5-propionamidobenzo[d]oxazol-2-yl)-2,7-naphthyridin-3-yl)cyclopropanecarboxamide], the IC50 in assay [1] is no more than 0.5 µM. Also, the Kd in assay [2] is no more than 0.1 µM.
Turning to `CNc1ncc(-c2nc3cc(NC(=O)CC4CC4)ccc3o2)c2cc(NC(=O)C3CC3)ncc12` [Example 1093, N-(5-(5-(2-cyclopropylacetamido)benzo[d]oxazol-2-yl)-8-(methylamino)-2,7-naphthyridin-3-yl)cyclopropanecarboxamide], the IC50 in assay [1] was no more than 0.5 µM. Further, the Kd in assay [2] is no more than 0.1 µM.
As for `CNc1ncc(-c2nc3ccc(N4CCOCC4)cc3s2)c2cc(NC(=O)C3CC3)ncc12` [Example 1094, N-(8-(methylamino)-5-(6-morpholinobenzo[d]thiazol-2-yl)-2,7-naphthyridin-3-yl)cyclopropanecarboxamide], the IC50 in assay [1] is no more than 0.5 µM. Moreover, the Kd in assay [2] is no more than 0.1 µM.
On the same counts, the results for `[2H]C([2H])(C)Nc1ncc(-c2nc3ccc(N4CCOCC4)cn3n2)c2cc(NC(=O)[C@H]3C[C@H]3C)ncc12` [Example 1095, (1S,2R)—N-(8-((ethyl-1,1-d2)amino)-5-(6-morpholino-[1,2,4]triazolo[1,5-a]pyridine-2-yl)-2,7-naphthyridin-3-yl)-2-methylcyclopropane-1-carboxamide] are no more than 0.5 µM and no more than 0.1 µM.
In the case of `[2H]C([2H])(C)Nc1ncc(-c2nc3ccc(N4CCOCC4)cn3n2)c2cc(NC(=O)C3CC3)ncc12` [Example 1096, N-(8-((ethyl-1,1-d2)amino)-5-(6-morpholino-[1,2,4]triazolo[1,5-a]pyridin-2-yl)-2,7-naphthyridin-3-yl)cyclopropanecarboxamide], the IC50 in assay [1] was no more than 0.5 µM. Besides, the Kd in assay [2] is no more than 0.1 µM.
On the same counts, the results for `CNc1ncc(-c2nc3cc(OC)ccc3o2)c2cc(NC(=O)NC3CC3)ncc12` [Example 1097, 1-cyclopropyl-3-(5-(5-methoxybenzo[d]oxazol-2-yl)-8-(methylamino)-2,7-naphthyridin-3-yl)urea] are no more than 0.5 µM and no more than 0.1 µM.
As to `CNc1ncc(-c2nc3cc(N4CCOCC4)ccc3o2)c2cc(Nc3ccc(C(C)(C)O)cn3)ncc12` [Example 1098], the IC50 in assay [1] is no more than 0.5 µM. Also, in assay [2], the Kd was no more than 0.1 µM.
Take `CNc1ncc(-c2nc3cc(C(=O)NC4CC4)ccc3o2)c2cc(NC(=O)C3CC3)ncc12` [Example 1099, 2-(6-(cyclopropanecarboxamido)-1-(methylamino)-2,7-naphthyridin-4-yl)-N-cyclopropylbenzo[d]oxazole-5-carboxamide]: the IC50 in assay [1] was no more than 0.5 µM. Besides, the Kd in assay [2] is no more than 0.1 µM.
As for `CCNC(=O)c1ccc2oc(-c3cnc(NC)c4cnc(NC(=O)C5CC5)cc34)nc2c1` [Example 1100, 2-(6-(cyclopropanecarboxamido)-1-(methylamino)-2,7-naphthyridin-4-yl)-N-ethylbenzo[d]oxazole-5-carboxamide], the IC50 in assay [1] was no more than 0.5 µM. Besides, the Kd in assay [2] is no more than 0.1 µM.
On the same counts, the results for `CNc1ncc(-c2nc3cc(C(=O)NCC4CC4)ccc3o2)c2cc(NC(=O)C3CC3)ncc12` [Example 1101, 2-(6-(cyclopropanecarboxamido)-1-(methylamino)-2,7-naphthyridin-4-yl)-N-(cyclopropylmethyl)benzo[d]oxazole-5-carboxamide] are no more than 0.5 µM and no more than 0.1 µM.
On the same counts, the results for `[2H]C([2H])(C)Nc1ncc(-c2nc3cc(OC)ccc3o2)c2cc(NC(=O)C3CC3)ncc12` [Example 1102, N-(8-((ethyl-1,l-rig)amino)-5-(5-methoxybenzo[d]oxazol-2-yl)-2,7-naphthyridin-3-yl)cyclopropanecarboxamide] are no more than 0.5 µM and no more than 0.1 µM.
For `CNc1ncc(-c2cc3ccncc3o2)c2cc(Nc3cccc(OCCCCO)n3)ncc12` [Example 1103, 4-((6-((5-(furo[2,3-c]pyridin-2-yl)-8-(methylamino)-2,7-naphthyridin-3-yl)amino)pyridin-2-yl)oxy)butan-1-ol], the IC50 in assay [1] is no more than 0.5 µM. The Kd in assay [2] was no more than 0.1 µM.
`CNc1ncc(C#Cc2ccc(-n3ccccc3=O)cc2)c2cc(NC(=O)C3(F)CC3)ncc12` [Example 1138, 1-fluoro-N-(8-(methylamino)-5-((4-(2-oxopyridin-1(2H)-yl)Phenyl)ethynyl)-2,7-naphthyridin-3-yl)cyclopropanecarboxamide]: the IC50 in assay [1] was no more than 0.5 µM. Also, the Kd in assay [2] was no more than 0.1 µM.
As to `CNc1ncc(C#Cc2ccc(-n3c(=O)ccn3C)cc2)c2cc(NC(=O)[C@H]3C[C@H]3C)ncc12` [Example 1142, (1S,2R)-2-methyl-N-[8-(methylamino)-5-[2-[4-(2-methyl-5-oxo-pyrazol-1-yl)phenyl]ethynyl]-2,7-naphthyridin-3-yl]cyclopropanecarboxamide], in assay [1], the IC50 is no more than 0.5 µM. Besides, the Kd in assay [2] is no more than 0.1 µM.
In the case of deucravacitinib, in assay [3], the “efficacy in Psoriasis patients” value is “efficacy”.
